In publication PMC5515969, “Effects of 31 FDA approved small-molecule kinase inhibitors on isolated rat liver mitochondria” (Archives of Toxicology, 2016):
Where a name gives a salt, the structure may show the parent alone. Read-outs that look alike come from different tables or passages of the source.

Experiments:
RCC I = RCC I activity in submitochondrial particles; assay type: biochemical, rat; parameters: key to RCC I at 10XCmax / RCC I at 100XCmax / RCC I at 50XCmax / RCC I at 30XCmax / RCC I at 20XCmax: activity relative to DMSO-treated controls (control set as 1 = 100%); conditions: 10XCmax; relative to DMSO treated samples
How it was run: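 Abs 340 nm (I/V) or 600 nm (II), 1-min reads × 6 min; 550 nm (III, IV), 10-s reads × 2 min. RCC I = rotenone-free minus rotenone rate. DMSO control = 1.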

[1] = test system: isolated rat liver mitochondria; assay: Mitochondrial oxygen consumption (glutamate/malate or succinate driven, state 4 and state 3); assay type: biochemical; conditions: DMSO treated samples set as 1; for State 3 respiration driven by succinate at 10XCmax: key: 0 indicates that the drug had no effects (negative); for State 3 respiration driven by succinate at 1XCmax: key: 0 indicates that the drug had no effects (negative)
How it was run: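 Rat liver mitochondria (1 mg/ml protein) exposed 5 min to kinase inhibitors in 0.1% DMSO, then O2 consumption measured by Clark-type electrode with glutamate/malate or succinate (state 4), ADP added after 3 min (state 3). Rates normalized to 0.1% DMSO controls set to 1.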

[2] = test system: isolated rat liver mitochondria; assay: Mitochondrial swelling (absorbance at 535 nm); assay type: biochemical; conditions: difference in signal between KI and DMSO treated samples at the end of experiments; for Swelling 5XCmax: key: 0 indicates that the drug had no effects (negative)
[3] = test system: isolated rat liver mitochondria; assay: Mitochondrial ROS production (CM-H2DCFDA); conditions: DMSO treated samples set as 1
[4] = test system: isolated rat liver mitochondria; conditions: positive control alamethicin treated samples
[5] = Solubility of drug in DMSO stock / reaction buffer at multiples of Cmax; assay type: physicochemical
Description: Supplement 204_2016_1918_MOESM3_ESM.xlsx, sheet "Sheet1" | column: 100 Cmax; 50 Cmax; note

RCC V = RCC V activity in submitochondrial particles; assay type: biochemical, rat; conditions: relative to DMSO treated samples; for RCC V at 5XCmax: key: 0 indicates that the drug had no effects (negative)
How it was run: (§1)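 Kinase inhibitors were preincubated 15 min with submitochondrial particles (1 mg/ml) before complex activities were measured. RCC I was the rotenone-sensitive portion (activity without minus with rotenone). RCC I/V was read at 340 nm and RCC II at 600 nm every 1 min for 6 min. RCC III and IV were read at 550 nm every 10 s for 2 min. Activities are normalized to DMSO controls set as 1.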

[6] = cited from earlier work
[7] = therapeutic maximal blood concentration, ref product labeling, cited from earlier work
[8] = parameters: method as in product labeling; conditions: ref product labeling, cited from earlier work
RCC II = target: T1, RCC II (Rattus norvegicus, UniProt P21913+Q641Z9+Q6PCT8+Q920L2); assay: RCC II activity in submitochondrial particles; assay type: biochemical; parameters: key: activity relative to DMSO-treated controls (control set as 1 = 100%); conditions: relative to DMSO treated samples
T1 construct: Submitochondrial particles were prepared by subjecting the intact mitochondria to three successive freeze–thaw cycles; from tissue; host or cells: rat liver mitochondria, used as submitochondrial particles
How it was run: as §1

[9] = test system: isolated rat liver mitochondria; assay: Mitochondrial inner membrane potential (MMP), Rhodamine 123; assay type: biochemical; conditions: difference in signal between KI and DMSO treated samples at the end of experiments
Description: Fig. 3 KI effects on mitochondrial inner membrane potential (MMP). […] In a, c, data are means and standard derivations from three separate experiments. *p < 0.05 as compared to DMSO-treated samples at the end of experiments. In b, data are means of two independent experiments

T1 sequence (Q920L2 35-656): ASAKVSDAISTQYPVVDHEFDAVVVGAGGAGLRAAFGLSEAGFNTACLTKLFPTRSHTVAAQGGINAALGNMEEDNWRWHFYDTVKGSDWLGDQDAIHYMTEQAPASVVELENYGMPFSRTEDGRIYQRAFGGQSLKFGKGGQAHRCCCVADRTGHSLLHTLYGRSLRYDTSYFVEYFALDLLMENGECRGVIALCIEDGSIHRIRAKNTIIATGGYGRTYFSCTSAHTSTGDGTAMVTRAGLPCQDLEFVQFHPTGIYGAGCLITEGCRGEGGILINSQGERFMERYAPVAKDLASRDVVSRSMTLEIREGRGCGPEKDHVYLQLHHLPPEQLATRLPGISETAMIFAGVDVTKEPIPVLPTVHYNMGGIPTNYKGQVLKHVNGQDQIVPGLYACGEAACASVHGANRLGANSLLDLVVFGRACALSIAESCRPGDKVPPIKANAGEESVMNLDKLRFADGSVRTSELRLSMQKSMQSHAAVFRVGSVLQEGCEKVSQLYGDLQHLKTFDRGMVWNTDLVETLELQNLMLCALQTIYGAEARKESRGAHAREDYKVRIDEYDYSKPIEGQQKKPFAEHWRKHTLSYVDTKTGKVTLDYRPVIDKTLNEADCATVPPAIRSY
T1 sequence (P21913 31-282): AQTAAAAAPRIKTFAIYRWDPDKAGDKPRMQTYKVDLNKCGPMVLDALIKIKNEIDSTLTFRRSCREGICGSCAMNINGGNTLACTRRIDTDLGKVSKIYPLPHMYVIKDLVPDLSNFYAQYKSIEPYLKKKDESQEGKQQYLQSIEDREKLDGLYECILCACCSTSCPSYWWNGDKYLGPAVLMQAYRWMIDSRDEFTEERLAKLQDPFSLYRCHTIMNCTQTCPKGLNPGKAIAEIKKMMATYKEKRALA
T1 sequence (Q641Z9 1-169): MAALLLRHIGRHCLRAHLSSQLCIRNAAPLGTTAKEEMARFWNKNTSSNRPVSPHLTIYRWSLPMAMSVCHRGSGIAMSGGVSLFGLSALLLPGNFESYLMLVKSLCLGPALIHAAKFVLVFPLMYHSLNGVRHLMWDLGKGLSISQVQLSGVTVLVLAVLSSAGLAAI
T1 sequence (Q6PCT8 57-159): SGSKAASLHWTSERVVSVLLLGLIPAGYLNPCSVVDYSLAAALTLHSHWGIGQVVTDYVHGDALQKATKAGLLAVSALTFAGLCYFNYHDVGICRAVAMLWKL

C#Cc1cccc(Nc2ncnc3cc(OCCOC)c(OCCOC)cc23)c1 [erlotinib hydrochloride]
RCC I at 10XCmax (RCC I): 0 | State 3 respiration driven by glutamate/malate at 1XCmax ([1]; 1XCmax): 0 | State 3 respiration driven by succinate at 1XCmax ([1]; 1XCmax): 0 | State 4 respiration driven by glutamate/malate at 1XCmax ([1]; 1XCmax): 0 | State 4 respiration driven by succinate at 1XCmax ([1]; 1XCmax): 0 | State 3 respiration driven by glutamate/malate at 2.5XCmax ([1]; 2.5XCmax): 0 | State 3 respiration driven by succinate at 2.5XCmax ([1]; 2.5XCmax): 0 | State 4 respiration driven by glutamate/malate at 2.5XCmax ([1]; 2.5XCmax): 0 | State 4 respiration driven by succinate at 2.5XCmax ([1]; 2.5XCmax): 0 | State 3 respiration driven by glutamate/malate at 5XCmax ([1]; 5XCmax): 0 | State 3 respiration driven by succinate at 5XCmax ([1]; 5XCmax): 0 | State 4 respiration driven by glutamate/malate at 5XCmax ([1]; 5XCmax): 0 | State 4 respiration driven by succinate at 5XCmax ([1]; 5XCmax): 0 | State 3 respiration driven by glutamate/malate at 10XCmax ([1]; 10XCmax): 0 | State 3 respiration driven by succinate at 10XCmax ([1]; 10XCmax): 0 | State 4 respiration driven by glutamate/malate at 10XCmax ([1]; 10XCmax): 0 | State 4 respiration driven by succinate at 10XCmax ([1]; 10XCmax): 0 | Swelling 1XCmax ([2]; 1XCmax): 0 | Swelling 2.5XCmax ([2]; 2.5XCmax): 0 | Swelling 5XCmax ([2]; 5XCmax): 0 | Swelling 10XCmax ([2]; 10XCmax): 0 | ROS measured by CM-H2DCFDA at 1XCmax ([3]; 1XCmax): 0 | ROS measured by CM-H2DCFDA at 2.5XCmax ([3]; 2.5XCmax): 0 | ROS measured by CM-H2DCFDA at 5XCmax ([3]; 5XCmax): 0 | ROS measured by CM-H2DCFDA at 10XCmax ([3]; 10XCmax): 0 | Cytochrome c release 1XCmax ([4]; 1XCmax): 0 | Cytochrome c release 2.5XCmax ([4]; 2.5XCmax): 0 | Cytochrome c release 5XCmax ([4]; 5XCmax): 0 | Cytochrome c release 10XCmax ([4]; 10XCmax): 0 | Solubility of stock for 50 Cmax ([5]; DMSO stock for 50 Cmax): not soluble | Solubility of stock for 100 Cmax ([5]; DMSO stock for 100 Cmax): not soluble | RCC V at 5XCmax (RCC V; 5XCmax): 0 | RCC V at 10XCmax (RCC V; 10XCmax): 83.52±2.96 | DILI potential (based on labeling) ([6]; 1 = DILI positive, 0 = negative, ref product labeling): 1 | Labeling for DILI ([6]; in vivo): W&P: fatal DILI | Cmax ([7]; read-out: Cmax at µM): 3.44 µM | Cmax [7]: 1480 ng/mL | Labeling for cardiotoxicity ([8]; BBW: black box warning, W&P: Warnings and Precautions): W&P: Myocardial Infarction/Ischemia | Potential for cardiotoxicity (based on labeling) [8]: 1 | RCC II at 1.0XCmax (RCC II; 1.0XCmax): 0 | RCC II at 2.5XCmax (RCC II; 2.5XCmax): 0 | RCC II at 5XCmax (RCC II; 5XCmax): 0 | RCC II at 10XCmax (RCC II; 10XCmax): 0 | MMP measured by Rhodamine 123 at 1XCmax ([9]; 1XCmax): 0 | MMP measured by Rhodamine 123 at 2.5XCmax ([9]; 2.5XCmax): 0 | MMP measured by Rhodamine 123 at 5XCmax ([9]; 5XCmax): 0 | MMP measured by Rhodamine 123 at 10XCmax ([9]; 10XCmax): 0
